Experiments:
Experiment in all cases: relative viability vs DMSO control (72 h) (fraction); higher = more viable cells
[1] = test system: SW684
Outline: (§1)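 Sarcoma cell lines were seeded in 384-well plates at densities set to reach 80–90% confluence. After 24 h, 2.5 µl of serially diluted compound was added (source plates 10 mM to 0.0002 mM), and plates were held 72 h at 37 °C, 5% CO2, with 0.1% DMSO vehicle and a 5 µM positive control. Relative viability came from ATPLite readings as percent growth, averaged over up to triplicate wells. Data were rescaled so full viability equals 1 and none equals 0.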

[2] = test system: A204
Outline: as §1

[3] = test system: SK-ES-1
Outline: as §1

[4] = test system: G401
Outline: as §1

[5] = test system: SK-LMS-1
Outline: as §1

[6] = test system: HS729
Outline: as §1

[7] = test system: SW872
Outline: as §1

[8] = test system: MES-SA
Outline: as §1

[9] = test system: SYO-1
Outline: as §1

[10] = test system: SW1353
Outline: as §1

[11] = test system: SW982
Outline: as §1

[12] = test system: KHOS-240S
Outline: as §1

CCN(CCCOc1ccc2c(Nc3cc(CC(=O)Nc4cccc(F)c4)[nH]n3)ncnc2c1)CCOP(=O)(O)O [Barasertib]
Conditions	relative viability
[1], 0.00017 µM	1.11
[1], 0.00051 µM	1.11
[1], 0.00152 µM	1.15
[1], 0.00457 µM	1.15
[1], 0.01372 µM	1.12
[1], 0.04115 µM	1.04
[1], 0.1235 µM	1.06
[1], 0.3704 µM	1.11
[1], 1.111 µM	1.08
[1], 3.333 µM	0.977
[1], 10 µM	0.816
[2], 0.00017 µM	1.05
[2], 0.00051 µM	1.05
[2], 0.00152 µM	1.05
[2], 0.00457 µM	1.04
[2], 0.01372 µM	0.9872
[2], 0.04115 µM	0.907
[2], 0.1235 µM	0.859
[2], 0.3704 µM	0.813
[2], 1.111 µM	0.7
[2], 3.333 µM	0.441
[2], 10 µM	0.379
[3], 0.00017 µM	1.05
[3], 0.00051 µM	1.09
[3], 0.00152 µM	1.04
[3], 0.00457 µM	0.98
[3], 0.01372 µM	0.237
[3], 0.04115 µM	0.065
[3], 0.1235 µM	0.0636
[3], 0.3704 µM	0.0641
[3], 1.111 µM	0.061
[3], 3.333 µM	0.0649
[3], 10 µM	0.0658
[4], 0.00017 µM	0.961
[4], 0.00051 µM	0.998
[4], 0.00152 µM	0.996
[4], 0.00457 µM	0.97
[4], 0.01372 µM	0.897
[4], 0.04115 µM	0.798
[4], 0.1235 µM	0.777
[4], 0.3704 µM	0.8003
[4], 1.111 µM	0.799
[4], 3.333 µM	0.776
[4], 10 µM	0.677
[5], 0.00017 µM	1.02
[5], 0.00051 µM	1.02
[5], 0.00152 µM	1.03
[5], 0.00457 µM	1
[5], 0.01372 µM	1.06
[5], 0.04115 µM	1.01
[5], 0.1235 µM	0.917
[5], 0.3704 µM	0.855
[5], 1.111 µM	0.904
[5], 3.333 µM	0.887
[5], 10 µM	0.867
[6], 0.00017 µM	0.957
[6], 0.00051 µM	0.934
[6], 0.00152 µM	0.947
[6], 0.00457 µM	0.936
[6], 0.01372 µM	0.901
[6], 0.04115 µM	0.934
[6], 0.1235 µM	0.877
[6], 0.3704 µM	0.801
[6], 1.111 µM	0.8
[6], 3.333 µM	0.815
[6], 10 µM	0.804
[7], 0.00017 µM	1.01
[7], 0.00051 µM	1.01
[7], 0.00152 µM	0.9782
[7], 0.00457 µM	0.985
[7], 0.01372 µM	0.975
[7], 0.04115 µM	0.962
[7], 0.1235 µM	0.897
[7], 0.3704 µM	0.918
[7], 1.111 µM	0.912
[7], 3.333 µM	0.892
[7], 10 µM	0.8645
[8], 0.00017 µM	0.92
[8], 0.00051 µM	0.915
[8], 0.00152 µM	0.911
[8], 0.00457 µM	0.892
[8], 0.01372 µM	0.692
[8], 0.04115 µM	0.448
[8], 0.1235 µM	0.448
[8], 0.3704 µM	0.447
[8], 1.111 µM	0.436
[8], 3.333 µM	0.444
[8], 10 µM	0.398
[9], 0.00017 µM	0.939
[9], 0.00051 µM	0.918
[9], 0.00152 µM	0.891
[9], 0.00457 µM	0.82
[9], 0.01372 µM	0.479
[9], 0.04115 µM	0.415
[9], 0.1235 µM	0.397
[9], 0.3704 µM	0.337
[9], 1.111 µM	0.319
[9], 3.333 µM	0.284
[9], 10 µM	0.251
[10], 0.00017 µM	0.955
[10], 0.00051 µM	0.972
[10], 0.00152 µM	0.939
[10], 0.00457 µM	0.985
[10], 0.01372 µM	0.867
[10], 0.04115 µM	0.841
[10], 0.1235 µM	0.842
[10], 0.3704 µM	0.812
[10], 1.111 µM	0.823
[10], 3.333 µM	0.82
[10], 10 µM	0.8463
[11], 0.00017 µM	1.06
[11], 0.00051 µM	1.03
[11], 0.00152 µM	1.05
[11], 0.00457 µM	1.05
[11], 0.01372 µM	1
[11], 0.04115 µM	0.713
[11], 0.1235 µM	0.5551
[11], 0.3704 µM	0.552
[11], 1.111 µM	0.589
[11], 3.333 µM	0.525
[11], 10 µM	0.468
[12], 0.00017 µM	1.04
[12], 0.00051 µM	1.02
[12], 0.00152 µM	1.03
[12], 0.00457 µM	1
[12], 0.01372 µM	0.978
[12], 0.04115 µM	0.9
[12], 0.1235 µM	0.794
[12], 0.3704 µM	0.759
[12], 1.111 µM	0.744
[12], 3.333 µM	0.736
[12], 10 µM	0.712

— the supplement of paper PMC10883282
